Results as given in BindingDB's records for doi:10.1021/jm061152t (Abbott Laboratories, 2007).
pEC50: −log10 of the molar value. Where “and” joins values, the source holds several entries; their conditions need not be identical. Identical values can stand only once.

Experiments:
[1] = The binding affinities (Ki) of compounds were determined using fluorescence polarization assays (FPA) that measure their ability to competitively displace a Bad-derived peptide from Bcl-xL. IC50 values were binding affinities measured in the presence of 10% human serum. Compound efficacy (EC50) in a cellular co; conditions: pH 7.4
[2] = The binding affinities (Ki) of compounds were determined using fluorescence polarization assays (FPA) that measure their ability to competitively displace a Bad-derived peptide from Bcl-xL. Compound efficacy (EC50) in a cellular context was evaluated by testing their ability to reverse the protection from cytokine w

Work on `COC1(Cc2ccccc2)CCN(c2ccc(C(=O)NS(=O)(=O)c3ccc(N[C@H](CCN(C)C)CSc4ccccc4)c([N+](=O)[O-])c3)cc2)CC1` [4-(4-benzyl-4-methoxypiperidin-1-yl)-N-[(4-{[(2R)-4-(dimethylamino)-1-(phenylsulfanyl)butan-2-yl]amino}-3-nitrobenzene)sulfonyl]benzamide] yielded a pEC50 [1] of 6.17 and a pEC50 [2] of 6.03.
`COC1(CC2CCCCC2)CCN(c2ccc(C(=O)NS(=O)(=O)c3ccc(N[C@H](CCN(C)C)CSc4ccccc4)c([N+](=O)[O-])c3)cc2)CC1` [4-[4-(cyclohexylmethyl)-4-methoxypiperidin-1-yl]-N-[(4-{[(2R)-4-(dimethylamino)-1-(phenylsulfanyl)butan-2-yl]amino}-3-nitrobenzene)sulfonyl]benzamide] gave a pEC50 [1] of 6.49 and a pEC50 [2] of 6.70.
For `COC1(Cc2ccccc2Br)CCN(c2ccc(C(=O)NS(=O)(=O)c3ccc(N[C@H](CCN(C)C)CSc4ccccc4)c([N+](=O)[O-])c3)cc2)CC1` [4-{4-[(2-bromophenyl)methyl]-4-methoxypiperidin-1-yl}-N-[(4-{[(2R)-4-(dimethylamino)-1-(phenylsulfanyl)butan-2-yl]amino}-3-nitrobenzene)sulfonyl]benzamide], the pEC50 [1] was 7.00 and the pEC50 [2] was 6.70.
For `COC1(Cc2ccccc2Cl)CCN(c2ccc(C(=O)NS(=O)(=O)c3ccc(N[C@H](CCN(C)C)CSc4ccccc4)c([N+](=O)[O-])c3)cc2)CC1` [4-{4-[(2-chlorophenyl)methyl]-4-methoxypiperidin-1-yl}-N-[(4-{[(2R)-4-(dimethylamino)-1-(phenylsulfanyl)butan-2-yl]amino}-3-nitrobenzene)sulfonyl]benzamide], the pEC50 [1] was 6.64 and the pEC50 [2] was 6.74.
Compound `CN(C)CC[C@H](CSc1ccccc1)Nc1ccc(S(=O)(=O)NC(=O)c2ccc(N3CCC(=Cc4ccccc4Cl)CC3)cc2)cc1[N+](=O)[O-]` [4-{4-[(2-chlorophenyl)methylidene]piperidin-1-yl}-N-[(4-{[(2R)-4-(dimethylamino)-1-(phenylsulfanyl)butan-2-yl]amino}-3-nitrobenzene)sulfonyl]benzamide] has a pEC50 [1] of 6.46 and a pEC50 [2] of 6.35.
Work on `CN(C)CC[C@H](CSc1ccccc1)Nc1ccc(S(=O)(=O)NC(=O)c2ccc(N3CCC(=Cc4ccccc4C#N)CC3)cc2)cc1[N+](=O)[O-]` [4-{4-[(2-cyanophenyl)methylidene]piperidin-1-yl}-N-[(4-{[(2R)-4-(dimethylamino)-1-(phenylsulfanyl)butan-2-yl]amino}-3-nitrobenzene)sulfonyl]benzamide] yielded a pEC50 [1] of 5.96 and a pEC50 [2] of 5.80.
Compound `COC1(Cc2cccc(Cl)c2)CCN(c2ccc(C(=O)NS(=O)(=O)c3ccc(N[C@H](CCN(C)C)CSc4ccccc4)c([N+](=O)[O-])c3)cc2)CC1` [4-{4-[(3-chlorophenyl)methyl]-4-methoxypiperidin-1-yl}-N-[(4-{[(2R)-4-(dimethylamino)-1-(phenylsulfanyl)butan-2-yl]amino}-3-nitrobenzene)sulfonyl]benzamide] has a pEC50 [1] of 6.60 and a pEC50 [2] of 6.52.
`COC1(Cc2ccc(Cl)cc2)CCN(c2ccc(C(=O)NS(=O)(=O)c3ccc(N[C@H](CCN(C)C)CSc4ccccc4)c([N+](=O)[O-])c3)cc2)CC1` [4-{4-[(4-chlorophenyl)methyl]-4-methoxypiperidin-1-yl}-N-[(4-{[(2R)-4-(dimethylamino)-1-(phenylsulfanyl)butan-2-yl]amino}-3-nitrobenzene)sulfonyl]benzamide] gave a pEC50 [1] of 6.40 and a pEC50 [2] of 6.30.
In the case of `CN(C)CC[C@H](CSc1ccccc1)Nc1ccc(S(=O)(=O)NC(=O)c2ccc(N3CCC(=Cc4ccc(Cl)cc4)CC3)cc2)cc1[N+](=O)[O-]` [4-{4-[(4-chlorophenyl)methylidene]piperidin-1-yl}-N-[(4-{[(2R)-4-(dimethylamino)-1-(phenylsulfanyl)butan-2-yl]amino}-3-nitrobenzene)sulfonyl]benzamide], the pEC50 [1] was 6.21 and the pEC50 [2] was 5.93.
`CN(C)CC[C@H](CSc1ccccc1)Nc1ccc(S(=O)(=O)NC(=O)c2ccc(N3CCC(=Cc4ccccc4C(F)(F)F)CC3)cc2)cc1[N+](=O)[O-]` [N-[(4-{[(2R)-4-(dimethylamino)-1-(phenylsulfanyl)butan-2-yl]amino}-3-nitrobenzene)sulfonyl]-4-(4-{[2-(trifluoromethyl)phenyl]methylidene}piperidin-1-yl)benzamide] showed a pEC50 [1] of 6.82 and a pEC50 [2] of 6.68.
In the case of `CN(C)CC[C@H](CSc1ccccc1)Nc1ccc(S(=O)(=O)NC(=O)c2ccc(N3CCC(=Cc4ccc(C(F)(F)F)cc4)CC3)cc2)cc1[N+](=O)[O-]` [N-[(4-{[(2R)-4-(dimethylamino)-1-(phenylsulfanyl)butan-2-yl]amino}-3-nitrobenzene)sulfonyl]-4-(4-{[4-(trifluoromethyl)phenyl]methylidene}piperidin-1-yl)benzamide], the pEC50 [1] was 5.59 and the pEC50 [2] was 5.44.
With `COC1(CC(C)(C)C)CCN(c2ccc(C(=O)NS(=O)(=O)c3ccc(N[C@H](CCN(C)C)CSc4ccccc4)c([N+](=O)[O-])c3)cc2)CC1` [N-[(4-{[(2R)-4-(dimethylamino)-1-(phenylsulfanyl)butan-2-yl]amino}-3-nitrobenzene)sulfonyl]-4-[4-(2,2-dimethylpropyl)-4-methoxypiperidin-1-yl]benzamide] the pEC50 [1] was 6.12 and the pEC50 [2] was 6.00.
With `COC1(CC(C)C)CCN(c2ccc(C(=O)NS(=O)(=O)c3ccc(N[C@H](CCN(C)C)CSc4ccccc4)c([N+](=O)[O-])c3)cc2)CC1` [N-[(4-{[(2R)-4-(dimethylamino)-1-(phenylsulfanyl)butan-2-yl]amino}-3-nitrobenzene)sulfonyl]-4-[4-methoxy-4-(2-methylpropyl)piperidin-1-yl]benzamide] the pEC50 [1] was 6.24 and the pEC50 [2] was 6.15.
`COC1(Cc2ccccc2F)CCN(c2ccc(C(=O)NS(=O)(=O)c3ccc(N[C@H](CCN(C)C)CSc4ccccc4)c([N+](=O)[O-])c3)cc2)CC1` [N-[(4-{[(2R)-4-(dimethylamino)-1-(phenylsulfanyl)butan-2-yl]amino}-3-nitrobenzene)sulfonyl]-4-{4-[(2-fluorophenyl)methyl]-4-methoxypiperidin-1-yl}benzamide] gave a pEC50 [1] of 6.74 and a pEC50 [2] of 7.00.
Work on `CN(C)CC[C@H](CSc1ccccc1)Nc1ccc(S(=O)(=O)NC(=O)c2ccc(N3CCC(=Cc4ccccc4F)CC3)cc2)cc1[N+](=O)[O-]` [N-[(4-{[(2R)-4-(dimethylamino)-1-(phenylsulfanyl)butan-2-yl]amino}-3-nitrobenzene)sulfonyl]-4-{4-[(2-fluorophenyl)methylidene]piperidin-1-yl}benzamide] yielded a pEC50 [1] of 6.60 and a pEC50 [2] of 6.46.
Work on `COc1ccccc1C=C1CCN(c2ccc(C(=O)NS(=O)(=O)c3ccc(N[C@H](CCN(C)C)CSc4ccccc4)c([N+](=O)[O-])c3)cc2)CC1` [N-[(4-{[(2R)-4-(dimethylamino)-1-(phenylsulfanyl)butan-2-yl]amino}-3-nitrobenzene)sulfonyl]-4-{4-[(2-methoxyphenyl)methylidene]piperidin-1-yl}benzamide] yielded a pEC50 [1] of 6.52 and a pEC50 [2] of 6.60.
For `CN(C)CC[C@H](CSc1ccccc1)Nc1ccc(S(=O)(=O)NC(=O)c2ccc(N3CCC(=Cc4ccccc4-c4ccccc4)CC3)cc2)cc1[N+](=O)[O-]` [N-[(4-{[(2R)-4-(dimethylamino)-1-(phenylsulfanyl)butan-2-yl]amino}-3-nitrobenzene)sulfonyl]-4-{4-[(2-phenylphenyl)methylidene]piperidin-1-yl}benzamide], the pEC50 [2] was 6.80 and 6.74.
`CN(C)CC[C@H](CSc1ccccc1)Nc1ccc(S(=O)(=O)NC(=O)c2ccc(N3CCC(=Cc4ccc(F)cc4)CC3)cc2)cc1[N+](=O)[O-]` [N-[(4-{[(2R)-4-(dimethylamino)-1-(phenylsulfanyl)butan-2-yl]amino}-3-nitrobenzene)sulfonyl]-4-{4-[(4-fluorophenyl)methylidene]piperidin-1-yl}benzamide] showed a pEC50 [2] of 6.22 and a pEC50 ([2]; pH 7.4) of 6.42.
In the case of `Cc1ccc(S(=O)(=O)N2CCN(c3ccc(C(=O)NS(=O)(=O)c4ccc(N[C@H](CCN(C)C)CSc5ccccc5)c([N+](=O)[O-])c4)cc3)CC2)cc1` [N-[(4-{[(2R)-4-(dimethylamino)-1-(phenylsulfanyl)butan-2-yl]amino}-3-nitrobenzene)sulfonyl]-4-{4-[(4-methylbenzene)sulfonyl]piperazin-1-yl}benzamide], the pEC50 [2] was < 4.70 and the pEC50 ([2]; pH 7.4) was < 4.70.
For `COc1ccccc1CC1(OC)CCN(c2ccc(C(=O)NS(=O)(=O)c3ccc(N[C@H](CCN(C)C)CSc4ccccc4)c([N+](=O)[O-])c3)cc2)CC1` [N-[(4-{[(2R)-4-(dimethylamino)-1-(phenylsulfanyl)butan-2-yl]amino}-3-nitrobenzene)sulfonyl]-4-{4-methoxy-4-[(2-methoxyphenyl)methyl]piperidin-1-yl}benzamide], the pEC50 [1] was 6.82 and the pEC50 [2] was 6.60.
Compound `COC1(Cc2ccccc2C)CCN(c2ccc(C(=O)NS(=O)(=O)c3ccc(N[C@H](CCN(C)C)CSc4ccccc4)c([N+](=O)[O-])c3)cc2)CC1` [N-[(4-{[(2R)-4-(dimethylamino)-1-(phenylsulfanyl)butan-2-yl]amino}-3-nitrobenzene)sulfonyl]-4-{4-methoxy-4-[(2-methylphenyl)methyl]piperidin-1-yl}benzamide] has a pEC50 [1] of 6.82 and a pEC50 [2] of 6.70.
With `COC1(Cc2ccccc2-c2ccccc2)CCN(c2ccc(C(=O)NS(=O)(=O)c3ccc(N[C@H](CCN(C)C)CSc4ccccc4)c([N+](=O)[O-])c3)cc2)CC1` [N-[(4-{[(2R)-4-(dimethylamino)-1-(phenylsulfanyl)butan-2-yl]amino}-3-nitrobenzene)sulfonyl]-4-{4-methoxy-4-[(2-phenylphenyl)methyl]piperidin-1-yl}benzamide] the pEC50 [1] was 7.46 and the pEC50 [2] was 7.70.
`COC1(Cc2ccc(-c3ccccc3)cc2)CCN(c2ccc(C(=O)NS(=O)(=O)c3ccc(N[C@H](CCN(C)C)CSc4ccccc4)c([N+](=O)[O-])c3)cc2)CC1` [N-[(4-{[(2R)-4-(dimethylamino)-1-(phenylsulfanyl)butan-2-yl]amino}-3-nitrobenzene)sulfonyl]-4-{4-methoxy-4-[(4-phenylphenyl)methyl]piperidin-1-yl}benzamide] showed a pEC50 [1] of 6.22 and a pEC50 [2] of 5.96.
